Literature values, collected in patent US20140212515A1, “COMPOSITION AND METHODS FOR OPTIMIZING HEALTH OF CANCER PATIENTS BY THE ADMINISTRATION OF SODIUM SELENITE AND VITAMIN K3” (priority 2013, published 2014).

Tested on: rat pancreatic cancer cells

## CC1=CC(=O)c2ccccc2C1=O [Menadione, 2-Methyl-1,4-Napthoquinone]
  proliferation of rat pancreatic cancer cells: inhibit the proliferation
